From US8853230B2, “Inhibitors of JAK” (Portola Pharmaceuticals, Inc., priority 2009, dated 2014) come the findings set out here.

Common to all, as to assay type: biochemical
One assay deals with T1, JAK1 (Homo sapiens, UniProt P23458).
T1 construct: 5 μl of catalytic domain recombinant Kinase enzyme+Tyr peptide substrate (Invitrogen, Calif.); purchased Invitrogen
Nature of the assay: Z'-LYTE kinase assay, JAK1 tyrosine phosphorylation activity. The settings on record: read-out: JAK 1 IC50. As for the experimental part:
(§1) JAK and TYK2 tyrosine phosphorylation activity is measured using the Z′-LYTE™ Technology developed by Invitrogen Corporation (Carlsbad, Calif.). For JAK1, JAK2 and JAK3 the Z′-LYTE™ Kinase Assay Kit-Tyr6 Peptide (part number PV4122) was used. For TYK2 the Z′-LYTE™ Kinase Assay Kit-Tyr6 Peptide (part number PV3192) was used. The Z′-LYTE™ biochemical assay employs a fluorescence resonance energy transfer (FRET) coupled-enzyme format and is based on the differential sensitivity of phosphorylated and non-phosphorylated peptides to proteolitic cleavage. The assay uses a synthetic peptide substrate that is labelled with a donor fluorophore (coumarin) and an acceptor fluorophore (fluorescein) that make up a FRET pair. In the primary reaction (the Kinase Reaction), the kinase transfers the γ-phosphate of ATP to a single tyrosine residue on the substrate, while the presence of a kinase inhibitor in the primary reaction suppresses phosphorylation. In the secondary reaction (the Development Reaction), a site-specific protease (the Development Reagent) is added. The development buffer quenches the Kinase Reaction, while the protease recognizes and cleaves non-phosphorylated Z′-LYTE™ peptide substrate. Cleavage disrupts FRET between the donor and acceptor fluorophores on the non-phosphoryleted substrate, while uncleaved, phosphorylated substrate maintains FRET.
(§2) To test the ability of candidate molecules to inhibit JAK tyrosine phosphorylation activity, molecules are reconstituted in 100% DMSO and serially diluted 1:10 in polypropylene v-bottom microtiter plates. The candidate molecules are then diluted 1:25 into kinase buffer and 2.5 μl transferred into duplicate wells of a 384 well low volume black microtiter assay plate (Corning, USA). The final DMSO concentration in the assay is 1%. The kinase reaction contains 2.5 μl of a candidate molecule, 5 μl of catalytic domain recombinant Kinase enzyme+Tyr peptide substrate (Invitrogen, Calif.) and 2.5 μl ATP (Invitrogen, Calif.). The kinase reaction is allowed to procede for 1 hour at room temperature. The protease reaction is initiated by the addition of 5 μl Development Reagent (Invitrogen, Calif.). After 1 hour incubation at room temperature the fluorescence is measured using a FlexStation plate reader (Molecular Devices, Sunnyvale, Calif.). The reader settings used are as follows: Fluorescence mode, endpoint, top read, excitation 400 nm, emission 445 nm and 520 nm, Auto Cutoff 435 nm and 515 nm, PMT sensitivity high, 6 reads per well. Inhibition of JAK activity is calculated as the percent phosphorylation of substrate in the presence of inhibitor compared to the percent phosphorylation of substrate in the absence of inhibitor. IC50's were derived using Xlfit 4.3 (IDBS, UK), 4 parameter logistic model 205: Y=(A+((B−A)/(1+((C/x)^D)))).

Another assay deals with T2, JAK2 (Homo sapiens, UniProt O60674).
T2 construct: 5 μl of catalytic domain recombinant Kinase enzyme+Tyr peptide substrate (Invitrogen, Calif.); purchased Invitrogen
Nature of the assay: Z'-LYTE kinase assay, JAK2 tyrosine phosphorylation activity. The protocol: as §1, §2

Another assay has as its target T3, JAK3 (Homo sapiens, UniProt P52333).
T3 construct: 5 μl of catalytic domain recombinant Kinase enzyme+Tyr peptide substrate (Invitrogen, Calif.); purchased Invitrogen
Nature of the assay: Z'-LYTE kinase assay, JAK3 tyrosine phosphorylation activity. As for the experimental part: as §1, §2

In the next assay the target is T4, TYK2 (Homo sapiens, UniProt P29597).
T4 construct: 5 μl of catalytic domain recombinant Kinase enzyme+Tyr peptide substrate (Invitrogen, Calif.); purchased Invitrogen
T4 sequence (P29597 897-1176 limits assumed): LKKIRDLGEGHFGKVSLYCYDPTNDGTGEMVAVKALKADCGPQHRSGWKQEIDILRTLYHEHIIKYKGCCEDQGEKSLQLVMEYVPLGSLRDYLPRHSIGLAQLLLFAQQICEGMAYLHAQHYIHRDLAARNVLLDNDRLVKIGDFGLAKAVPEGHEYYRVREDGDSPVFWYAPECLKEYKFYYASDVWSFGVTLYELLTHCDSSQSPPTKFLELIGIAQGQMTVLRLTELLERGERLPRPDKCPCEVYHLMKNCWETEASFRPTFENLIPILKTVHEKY
Nature of the assay: Z'-LYTE kinase assay, TYK2 tyrosine phosphorylation activity. The protocol: as §1, §2

T2 sequence (O60674 849-1124 limits assumed): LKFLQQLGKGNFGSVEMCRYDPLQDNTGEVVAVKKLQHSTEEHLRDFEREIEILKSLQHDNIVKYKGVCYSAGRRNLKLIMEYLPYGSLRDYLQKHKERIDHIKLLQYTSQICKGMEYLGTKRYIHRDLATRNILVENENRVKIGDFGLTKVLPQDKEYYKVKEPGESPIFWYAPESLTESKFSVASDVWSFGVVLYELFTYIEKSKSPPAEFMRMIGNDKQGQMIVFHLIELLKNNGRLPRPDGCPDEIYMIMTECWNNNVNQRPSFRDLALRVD
T3 sequence (P52333 822-1111 limits assumed): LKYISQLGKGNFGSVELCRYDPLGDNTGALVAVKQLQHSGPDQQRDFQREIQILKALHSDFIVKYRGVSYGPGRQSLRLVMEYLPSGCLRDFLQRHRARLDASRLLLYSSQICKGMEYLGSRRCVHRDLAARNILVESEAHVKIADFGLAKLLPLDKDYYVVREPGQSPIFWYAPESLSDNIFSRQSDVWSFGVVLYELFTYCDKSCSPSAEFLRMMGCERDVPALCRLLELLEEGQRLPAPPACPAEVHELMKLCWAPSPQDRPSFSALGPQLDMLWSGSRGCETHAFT
T1 sequence (P23458 875-1153 limits assumed): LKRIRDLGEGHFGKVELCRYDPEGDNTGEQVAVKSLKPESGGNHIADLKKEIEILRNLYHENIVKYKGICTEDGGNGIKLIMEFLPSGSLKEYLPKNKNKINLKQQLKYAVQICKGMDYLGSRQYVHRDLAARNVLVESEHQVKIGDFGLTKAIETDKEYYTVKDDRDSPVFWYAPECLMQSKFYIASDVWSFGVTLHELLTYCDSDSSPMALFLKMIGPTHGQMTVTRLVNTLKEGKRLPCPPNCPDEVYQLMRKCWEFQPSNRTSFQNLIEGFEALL

On to `CC(=O)Nc1cc(Nc2ncc(C(N)=O)c(NCc3ccccc3)n2)ccc1Cl` [Example 2, 2-(3-acetamido-4-chlorophenylamino)-4-(benzylamino)pyrimidine-5-carboxamide], for which the IC50 at JAK1 fell in the range of 10 to 100 nM; at JAK2, 10 to 100 nM; at JAK3 it was 1 to 10 nM; against TYK2, 10 to 100 nM.
For the molecule `NC(=O)c1cnc(Nc2cccc(NC(=O)N3CCC[C@@H](O)C3)c2)nc1NCc1ccccc1` [Example 212, (R)-4-(benzylamino)-2-(3-(3-hydroxypiperidine-1-carboxamido)phenylamino)pyrimidine-5-carboxamide], the IC50 on JAK2, at JAK3 and against TYK2 was 100 to 1000 nM each time.
On to `CC(=O)Nc1cccc(Nc2ncc(C(N)=O)c(Nc3ccc(NC(=O)C4(C#N)CC4)cc3)n2)c1` [Example 302, 2-(3-acetamidophenylamino)-4-(4-(1-cyanocyclopropane-carboxamido)phenylamino)pyrimidine-5-carboxamide], for which the IC50 on JAK3 fell in the range of 10 to 100 nM.
In the case of `CC(=O)Nc1cccc(Nc2ncc(C(N)=O)c(Nc3ccc(NC(=O)CC(F)(F)F)cc3)n2)c1` [Example 303, 2-(3-acetamidophenylamino)-4-(4-(3,3,3-trifluoro-propanamido)phenylamino)pyrimidine-5-carboxamide], the IC50 on JAK3 fell in the range of 10 to 100 nM.
As to `NC(=O)c1cnc(Nc2ccc(F)c(NC(=O)N3CCCC3)c2)cc1NCc1cccnc1` [Example 304, 6-(4-fluoro-3-(pyrrolidine-1-carboxamido)phenylamino)-4-(pyridin-3-ylmethylamino)nicotinamide], the IC50 at JAK1 is > 1000 nM; at JAK2 it was > 1000 nM; against JAK3, 10 to 100 nM.
Consider `NC(=O)c1cnc(Nc2ccc(F)c(NC(=O)N3CCCC3)c2)cc1NCc1cccc(F)c1` [Example 307], for which the 50% inhibitory concentration (IC50) on JAK1 is 100 to 1000 nM; against JAK2, 100 to 1000 nM; on JAK3, 10 to 100 nM.
For `NC(=O)c1cnc(Nc2cccc(NC(=O)N3CCOCC3)c2)cc1NCc1cccc(F)c1` [Example 308, N-(3-(5-carbamoyl-4-(3-fluorobenzylamino)pyridin-2-ylamino)phenyl)morpholine-4-carboxamide], the results for the IC50 on JAK1, at JAK2 and on JAK3 were 100 to 1000 nM, 10 to 100 nM and 1 to 10 nM, respectively.
The corresponding values for `NC(=O)c1cnc(Nc2cccc(NC(=O)N3CCCC3)c2)cc1NCc1cccc(F)c1` [Example 309, 4-(3-fluorobenzylamino)-6-(3-(pyrrolidine-1-carboxamido)phenylamino)nicotinamide] are 100 to 1000 nM, 10 to 100 nM and 1 to 10 nM.
On the same counts, the results for `CC(=O)Nc1cccc(Nc2cc(NCc3cccc(F)c3)c(C(N)=O)cn2)c1` [Example 310, 6-(3-acetamidophenylamino)-4-(3-fluorobenzylamino)nicotinamide] are 100 to 1000 nM, 100 to 1000 nM and 1 to 10 nM.
Turning to `NC(=O)c1cnc(Nc2ccc(F)c(NC(=O)N3CCC3)c2)cc1N[C@H](CO)c1ccccc1` [Example 311, (S)-6-(3-(azetidine-1-carboxamido)-4-fluorophenylamino)-4-(2-hydroxy-1-phenylethylamino)nicotinamide], the IC50 on JAK1 was > 1000 nM; against JAK2, 100 to 1000 nM; at JAK3, 1 to 10 nM.
With `NC(=O)c1cnc(Nc2ccc(F)c(NC(=O)N3CCCC3)c2)cc1N[C@H](CO)c1ccccc1` [Example 313, (S)-6-(4-fluoro-3-(pyrrolidine-1-carboxamido)phenylamino)-4-(2-hydroxy-1-phenylethylamino)nicotinamide], the IC50 was > 1000 nM at JAK1, > 1000 nM against JAK2 and 10 to 100 nM against JAK3.
For `NC(=O)c1cnc(Nc2cccc(NC(=O)N3CCOCC3)c2)cc1N[C@H](CO)c1ccccc1` [Example 314, (S)—N-(3-(5-carbamoyl-4-(2-hydroxy-1-phenylethylamino)pyridin-2-ylamino)phenyl)morpholine-4-carboxamide], the figures for the IC50 at JAK1, against JAK2 and against JAK3 were 100 to 1000 nM, 100 to 1000 nM and 1 to 10 nM, respectively.
As to `NC(=O)c1cnc(Nc2cccc(NC(=O)N3CCCC3)c2)cc1N[C@H](CO)c1ccccc1` [Example 315, (S)-4-(2-hydroxy-1-phenylethylamino)-6-(3-(pyrrolidine-1-carboxamido)phenylamino)nicotinamide], the IC50 was > 1000 nM on JAK1, 100 to 1000 nM against JAK2 and 1 to 10 nM against JAK3.
Turning to `CC(=O)Nc1cccc(Nc2cc(N[C@H](CO)c3ccccc3)c(C(N)=O)cn2)c1` [Example 316, (S)-6-(3-acetamidophenylamino)-4-(2-hydroxy-1-phenylethylamino)nicotinamide], the IC50 at JAK1 was 100 to 1000 nM; against JAK2 it was 100 to 1000 nM; on JAK3, 10 to 100 nM.
For `NC(=O)c1cnc(Nc2ccc(F)c(NC(=O)N3CCC3)c2)cc1NCc1cccnc1` [Example 317, 6-(3-(azetidine-1-carboxamido)-4-fluorophenylamino)-4-(pyridin-3-ylmethylamino)nicotinamide], the half-maximal inhibitory concentration (IC50) is > 1000 nM at JAK1, > 1000 nM against JAK2 and 10 to 100 nM against JAK3.
Consider `CN(C)[C@@H]1CCN(C(=O)Nc2cccc(Nc3cc(NCc4cccnc4)c(C(N)=O)cn3)c2)C1` [Example 318, (R)-6-(3-(3-(dimethylamino)pyrrolidine-1-carboxamido)phenylamino)-4-(pyridin-3-ylmethylamino)nicotinamide], for which the figures for the IC50 at JAK1, on JAK2 and against JAK3 were > 1000 nM, 100 to 1000 nM and 10 to 100 nM, respectively.
Turning to `NC(=O)c1cnc(Nc2cccc(NC(=O)N3CCOCC3)c2)cc1NCc1cccnc1` [Example 319, N-(3-(5-carbamoyl-4-(pyridin-3-ylmethylamino)pyridin-2-ylamino)phenyl)morpholine-4-carboxamide], the IC50 at JAK1 is > 1000 nM; at JAK2, 100 to 1000 nM; at JAK3, 10 to 100 nM.
Regarding `NC(=O)c1cnc(Nc2cccc(NC(=O)N3CCCC3)c2)cc1NCc1cccnc1` [Example 320, 4-(pyridin-3-ylmethylamino)-6-(3-(pyrrolidine-1-carboxamido)phenylamino)nicotinamide], the figures for the half-maximal inhibitory concentration (IC50) on JAK1, against JAK2 and against JAK3 were > 1000 nM, 100 to 1000 nM and 10 to 100 nM, respectively.
On the same counts, the results for `CC(=O)Nc1cccc(Nc2cc(NCc3cccnc3)c(C(N)=O)cn2)c1` [Example 321, 6-(3-acetamidophenylamino)-4-(pyridin-3-ylmethylamino)nicotinamide] are 100 to 1000 nM, 100 to 1000 nM and 10 to 100 nM.
`CNC(=O)c1cnc(Nc2cccc(NC(C)=O)c2)cc1NCc1ccccc1` [Example 339, 6-(3-acetamidophenylamino)-4-(benzylamino)-N-methylnicotinamide]: the 50% inhibitory concentration (IC50) on JAK1, at JAK2 and on JAK3 was > 1000 nM in each case.
As for `NC(=O)c1cnc(Nc2cccc(NC(=O)N3CCCC3)c2)cc1NCc1cc(F)cc(F)c1` [Example 341, 4-(3,5-difluorobenzylamino)-6-(3-(pyrrolidine-1-carboxamido)phenylamino)nicotinamide], the IC50 on JAK1 is > 1000 nM; against JAK2 it was 100 to 1000 nM; against JAK3, 1 to 10 nM.
